Legend:
Assay in all cases: ABPP chemical proteomics (LC-MS/MS) in HEK293T cells
Format in all cases: cell-based
TMEM263 = target: T1, TMEM263 (Homo sapiens, UniProt Q8WUH6); details: IMP-2586 labelling vs DMSO, 30 nM, 10 min, HEK293T (Table S4, Fig.5c)
T1 construct: endogenous in cells; host or cells: HEK293T
Protocol: (§1) To explore the selectivity of IMP-2587 and IMP-2586 across the whole proteome, we performed quantitative activity-based protein profiling (ABPP) in HEK293T cells following treatment with IMP-2587 or IMP-2586 (Fig. 3a). After ABP incubation, cells were lysed, and probe-labelled proteins were ligated to biotinylated capture reagents.[27] […] USP30 was outcompeted by corresponding parent inhibitors for each ABP (Fig. 5b and d and Tables S3 and S5, ESI ^†), confirming the high potency and rapid engagement of IMP-2587 and IMP-2586 in cells. […] DESI1 and DESI2 are small ubiquitin-related modifier (SUMO) proteases,[3,29–32] and IMP-2587 and IMP-2586 may offer a starting point for future development of DESI ABPs. […]
(§2) d) Live cell probe incubation, lysate click chemistry and precipitation 6-well HEK293T cells were incubated with media containing compounds ABP 2 and ABP 4 at indicated concentrations for 1 h at 37 °C. The cells were washed with PBS and lysed with lysis buffer (50 μL (1% (v/v) Triton X-100, 0.1% (w/v) sodium dodecyl sulfate (SDS), EDTA-free complete protease inhibitor cocktail (1×, Roche) in PBS on ice for 10 min. The lysates were scraped and transferred to corresponding Lo-Bind Eppendorfs. Each lysate was sonicated for 1 minute, and the samples centrifuges at 5,000 x g at 4 °C for 5 minutes to pellet insoluble cellular debris. The supernatant was collected, and protein concentration was determined using the DC Protein Assay (Bio-Rad) as per manufacturer’s instructions, and normalised to lowest concentrated sample (e.g. 1 mg/mL, using lysis buffer). The following “click mixture” was prepared separately, preparing 6 μL for every 100 μL of […]
(§3) Capture reagent (AzRB/AzT for ABP 2, YnT/YnB for ABP 4 10 mM in DMSO, 1 vol; final concentration […]
(§4) CuSO4 (50 mM in water, 2 vol; final concentration in reaction 1 mM)
(§5) TCEP (50 mM in water, 2 vol; final concentration in reaction 1 mM)
(§6) TBTA (10 mM in DMSO, 1 vol; final concentration in reaction 100 µM)
(§7) The click mixture was vortexed and incubated at room temperature for 2 min before 6 μL of the mixture was added to every 100 μL of lysate. The reaction mixtures were shaken at room temperature for 1 h before being quenched with EDTA (500 mM in H2O) to a final concentration of 10 mM.
(§8) Proteins were precipitated by adding H2O (1 vol), MeOH (2 vol) and CHCl3 (0.5 vol), vortexing briefly then centrifuging at 17,000 × g for 5 min. The top H2O/MeOH layer was discarded and the middle layer of protein pellet and lower CHCl3 layer retained. The suspension was washed with MeOH (300 μL), and sonicated to break up the pellet. The proteins were pelleted by centrifugation at 10,000–17000 × g for 5–10 min or until a compact pellet was formed. The protein pellet was washed once more with MeOH (1 mL). The pellet was resuspended by sonicating and completely dissolving in 1% (w/v) SDS in PBS (to 5 mg/mL protein) before being made up to 1 mg/mL protein with PBS.
(§9) The lysate samples (10-20 μg) were mixed with 4× Laemmli sample loading buffer (250 mM Tris -HCl pH 6.8, 30% (v/v) glycerol, 10% (w/v) SDS, 0.05% (w/v) bromophenol blue) supplemented with 20% v/v β-mercaptoethanol (BME) and boiled for 10 min at 95 °C. The resulting protein samples were separated according to the protocol in section 3.2.c. Gel were imaged on a Typhoon imager (GE Healthcare; λEx 532 nm, λEm 575 nm for TAMRA. For protein loading quantification, gels were stained with Coomassie blue staining solution overnight, rinsed with water and imaged on an ImageQuant™ LAS 4000 imager (GE Healthcare). f) Neutravidin biotin enrichment (Affinity pull-down)
(§10) Click chemistry and precipitation steps were carried out as described in section 3.2.d, on at least 400ug of protein per sample. The pellet was resuspended by sonicating and completely dissolving in 1% (w/v) SDS in HEPES 50 mM pH 8.0, before being made up to 1 mg/mL protein with HEPES 50 mM pH 8.0 to […]
(§11) achieve a final concentration of 0.2% SDS. 20uL of each samples was collected as TL (Total lysate) […]
(§12) samples. […]

RPL27 = target: T2, RPL27 (Homo sapiens, UniProt P61353); details: IMP-2586 labelling vs DMSO, 30 nM, 10 min, HEK293T (Table S4, Fig.5c)
T2 construct: endogenous in cells; host or cells: HEK293T
Protocol: as §1, §2, §3, §4, §5, §6, §7, §8, §9, §10, §11, §12

HSDL1 = target: T3, HSDL1 (Homo sapiens, UniProt Q3SXM5); details: IMP-2586 labelling vs DMSO, 30 nM, 10 min, HEK293T (Table S4, Fig.5c)
T3 construct: endogenous in cells; host or cells: HEK293T
T3 sequence (Q3SXM5 whole entry): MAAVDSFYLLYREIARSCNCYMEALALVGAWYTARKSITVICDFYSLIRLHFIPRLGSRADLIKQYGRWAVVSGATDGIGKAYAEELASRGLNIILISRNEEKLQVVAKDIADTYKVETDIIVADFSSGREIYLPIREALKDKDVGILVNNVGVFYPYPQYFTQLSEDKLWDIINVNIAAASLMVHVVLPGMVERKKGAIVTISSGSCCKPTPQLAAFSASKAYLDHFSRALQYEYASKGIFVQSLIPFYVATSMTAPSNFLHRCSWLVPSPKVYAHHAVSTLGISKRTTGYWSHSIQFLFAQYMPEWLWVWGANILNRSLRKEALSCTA
Protocol: as §1, §2, §3, §4, §5, §6, §7, §8, §9, §10, §11, §12

SMARCA4 = target: T4, SMARCA4 (Homo sapiens, UniProt P51532); details: IMP-2586 labelling vs DMSO, 30 nM, 10 min, HEK293T (Table S4, Fig.5c)
T4 construct: endogenous in cells; host or cells: HEK293T
T4 sequence (P51532 whole entry): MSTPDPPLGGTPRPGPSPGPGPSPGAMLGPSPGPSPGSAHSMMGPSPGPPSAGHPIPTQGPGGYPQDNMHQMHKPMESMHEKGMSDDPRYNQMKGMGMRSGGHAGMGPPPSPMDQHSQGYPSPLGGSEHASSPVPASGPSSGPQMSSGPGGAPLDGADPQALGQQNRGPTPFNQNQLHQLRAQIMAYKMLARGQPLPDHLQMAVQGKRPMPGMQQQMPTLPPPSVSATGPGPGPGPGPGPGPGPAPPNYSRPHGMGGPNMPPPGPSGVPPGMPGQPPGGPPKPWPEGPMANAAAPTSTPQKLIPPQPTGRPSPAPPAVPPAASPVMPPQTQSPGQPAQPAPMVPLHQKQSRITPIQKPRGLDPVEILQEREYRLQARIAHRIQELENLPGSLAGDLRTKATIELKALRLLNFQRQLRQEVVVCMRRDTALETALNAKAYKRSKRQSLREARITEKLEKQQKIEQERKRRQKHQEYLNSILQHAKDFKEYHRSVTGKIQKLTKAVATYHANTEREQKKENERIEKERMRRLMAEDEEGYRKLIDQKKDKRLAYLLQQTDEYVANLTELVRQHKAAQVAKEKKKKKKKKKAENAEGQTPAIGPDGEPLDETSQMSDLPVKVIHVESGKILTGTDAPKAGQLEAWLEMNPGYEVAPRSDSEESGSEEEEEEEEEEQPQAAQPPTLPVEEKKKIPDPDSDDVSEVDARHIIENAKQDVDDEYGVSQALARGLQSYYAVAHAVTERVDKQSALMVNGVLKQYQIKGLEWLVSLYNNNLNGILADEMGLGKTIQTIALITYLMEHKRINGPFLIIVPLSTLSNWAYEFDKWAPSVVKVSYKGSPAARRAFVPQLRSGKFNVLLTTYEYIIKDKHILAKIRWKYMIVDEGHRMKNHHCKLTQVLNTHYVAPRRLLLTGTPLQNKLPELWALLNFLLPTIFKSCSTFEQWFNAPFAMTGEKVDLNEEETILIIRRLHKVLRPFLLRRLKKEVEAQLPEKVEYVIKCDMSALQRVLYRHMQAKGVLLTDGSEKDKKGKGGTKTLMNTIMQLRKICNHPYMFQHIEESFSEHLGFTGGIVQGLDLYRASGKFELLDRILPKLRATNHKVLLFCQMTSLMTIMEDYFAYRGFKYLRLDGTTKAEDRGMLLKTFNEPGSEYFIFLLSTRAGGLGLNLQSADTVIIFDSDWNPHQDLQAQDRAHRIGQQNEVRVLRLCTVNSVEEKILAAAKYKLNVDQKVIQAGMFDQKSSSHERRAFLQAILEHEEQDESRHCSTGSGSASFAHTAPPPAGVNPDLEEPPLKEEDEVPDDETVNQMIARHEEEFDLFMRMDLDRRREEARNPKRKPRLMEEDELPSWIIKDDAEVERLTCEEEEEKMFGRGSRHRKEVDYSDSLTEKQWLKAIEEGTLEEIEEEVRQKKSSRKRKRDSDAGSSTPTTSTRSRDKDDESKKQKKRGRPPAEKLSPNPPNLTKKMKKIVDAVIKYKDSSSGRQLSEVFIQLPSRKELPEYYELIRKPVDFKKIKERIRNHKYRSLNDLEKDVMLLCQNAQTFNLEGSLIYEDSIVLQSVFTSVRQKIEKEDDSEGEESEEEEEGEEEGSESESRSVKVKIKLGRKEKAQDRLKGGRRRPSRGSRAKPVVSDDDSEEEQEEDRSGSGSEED
Protocol: as §1, §2, §3, §4, §5, §6, §7, §8, §9, §10, §11, §12

MALT1 = target: T5, MALT1 (Homo sapiens, UniProt Q9UDY8); details: IMP-2586 labelling vs DMSO, 30 nM, 10 min, HEK293T (Table S4, Fig.5c)
T5 construct: endogenous in cells; host or cells: HEK293T
T5 sequence (Q9UDY8 whole entry): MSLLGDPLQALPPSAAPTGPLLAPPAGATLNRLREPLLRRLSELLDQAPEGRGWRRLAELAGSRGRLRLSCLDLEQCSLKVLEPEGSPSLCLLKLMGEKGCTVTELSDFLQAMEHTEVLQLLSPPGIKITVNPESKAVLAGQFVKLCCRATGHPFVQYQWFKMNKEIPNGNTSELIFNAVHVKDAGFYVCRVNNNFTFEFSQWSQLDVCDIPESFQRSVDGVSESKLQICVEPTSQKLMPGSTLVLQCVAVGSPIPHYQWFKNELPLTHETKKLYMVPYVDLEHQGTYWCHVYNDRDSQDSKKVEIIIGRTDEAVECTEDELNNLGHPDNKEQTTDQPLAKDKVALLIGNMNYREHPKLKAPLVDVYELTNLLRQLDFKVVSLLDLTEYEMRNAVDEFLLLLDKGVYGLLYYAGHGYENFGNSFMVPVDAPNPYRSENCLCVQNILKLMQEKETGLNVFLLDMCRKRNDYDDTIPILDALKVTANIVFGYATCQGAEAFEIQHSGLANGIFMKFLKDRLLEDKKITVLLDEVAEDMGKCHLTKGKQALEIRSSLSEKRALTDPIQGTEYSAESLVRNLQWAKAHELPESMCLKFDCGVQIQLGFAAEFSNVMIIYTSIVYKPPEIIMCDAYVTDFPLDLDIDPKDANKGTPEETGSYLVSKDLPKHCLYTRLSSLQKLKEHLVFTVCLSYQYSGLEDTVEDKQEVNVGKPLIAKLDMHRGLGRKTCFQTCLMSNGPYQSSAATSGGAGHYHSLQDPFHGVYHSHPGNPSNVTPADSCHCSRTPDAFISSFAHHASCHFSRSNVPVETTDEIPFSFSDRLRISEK
Protocol: as §1, §2, §3, §4, §5, §6, §7, §8, §9, §10, §11, §12

NPM3 = target: T6, NPM3 (Homo sapiens, UniProt O75607); details: IMP-2587 labelling vs DMSO, 30 nM, 10 min, HEK293T (Table S2, Fig.5a)
T6 construct: endogenous in cells; host or cells: HEK293T
T6 sequence (O75607 whole entry): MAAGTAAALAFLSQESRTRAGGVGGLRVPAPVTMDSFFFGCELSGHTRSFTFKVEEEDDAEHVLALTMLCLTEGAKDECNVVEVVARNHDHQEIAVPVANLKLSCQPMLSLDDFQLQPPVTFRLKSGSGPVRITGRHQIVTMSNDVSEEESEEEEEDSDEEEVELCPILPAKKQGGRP
Protocol: as §1, §2, §3, §4, §5, §6, §7, §8, §9, §10, §11, §12

CTSZ = target: T7, CTSZ (Homo sapiens, UniProt Q9UBR2)
T7 construct: endogenous in cells; host or cells: HEK293T
T7 sequence (Q9UBR2 62-303): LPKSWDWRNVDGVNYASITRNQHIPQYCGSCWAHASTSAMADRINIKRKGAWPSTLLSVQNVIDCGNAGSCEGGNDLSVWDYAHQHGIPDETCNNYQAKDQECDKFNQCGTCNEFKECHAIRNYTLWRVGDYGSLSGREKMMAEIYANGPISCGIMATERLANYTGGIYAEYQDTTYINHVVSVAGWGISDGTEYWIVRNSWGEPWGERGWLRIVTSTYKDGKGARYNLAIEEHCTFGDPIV
Protocol: as §1
The cells were washed with PBS and lysed with lysis buffer (50 μL (1% (v/v) Triton X-100, 0.1% (w/v) sodium dodecyl sulfate (SDS), EDTA-free complete protease inhibitor cocktail (1×, Roche) in PBS on ice for 10 min. The lysates were scraped and transferred to corresponding Lo-Bind Eppendorfs. Each lysate was sonicated for 1 minute, and the samples centrifuges at 5,000 x g at 4 °C for 5 minutes to pellet insoluble cellular debris. The supernatant was collected, and protein concentration was determined using the DC Protein Assay (Bio-Rad) as per manufacturer’s instructions, and normalised to lowest concentrated sample (e.g. 1 mg/mL, using lysis buffer). […]

ACTG1 = target: T8, ACTG1 (Homo sapiens, UniProt P63261); details: compound 1 out-competition with IMP-2587 labelling, HEK293T (Table S3, Fig.5b)
T8 construct: endogenous in cells; host or cells: HEK293T
Protocol: as §1, §2, §3, §4, §5, §6, §7, §8, §9, §10, §11, §12

CLPTM1 = target: T9, CLPTM1 (Homo sapiens, UniProt O96005); details: compound 3 out-competition with IMP-2586 labelling, HEK293T (Table S5, Fig.5d)
T9 construct: endogenous in cells; host or cells: HEK293T
T9 sequence (O96005 whole entry): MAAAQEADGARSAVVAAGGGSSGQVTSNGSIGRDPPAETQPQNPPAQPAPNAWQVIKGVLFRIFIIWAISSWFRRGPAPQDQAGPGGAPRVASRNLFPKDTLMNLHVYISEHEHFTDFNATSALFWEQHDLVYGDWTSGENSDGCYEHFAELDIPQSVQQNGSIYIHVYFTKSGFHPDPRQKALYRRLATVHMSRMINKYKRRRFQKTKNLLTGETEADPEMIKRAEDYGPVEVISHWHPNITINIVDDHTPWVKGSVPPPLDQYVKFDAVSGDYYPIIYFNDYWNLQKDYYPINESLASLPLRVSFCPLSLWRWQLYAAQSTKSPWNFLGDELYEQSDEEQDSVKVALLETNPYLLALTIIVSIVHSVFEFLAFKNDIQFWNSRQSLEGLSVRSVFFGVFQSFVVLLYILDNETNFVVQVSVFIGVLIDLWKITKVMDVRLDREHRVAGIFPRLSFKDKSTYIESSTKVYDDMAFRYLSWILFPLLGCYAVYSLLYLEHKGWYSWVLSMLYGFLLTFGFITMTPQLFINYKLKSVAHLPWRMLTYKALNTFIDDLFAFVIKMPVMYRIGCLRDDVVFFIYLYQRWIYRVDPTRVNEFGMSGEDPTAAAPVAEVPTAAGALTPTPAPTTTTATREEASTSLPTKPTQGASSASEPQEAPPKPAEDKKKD
Protocol: as §1, §2, §3, §4, §5, §6, §7, §8, §9, §10, §11, §12

NUB1 = target: T10, NUB1 (Homo sapiens, UniProt Q9Y5A7); details: compound 3 out-competition with IMP-2586 labelling, HEK293T (Table S5, Fig.5d)
T10 construct: endogenous in cells; host or cells: HEK293T
T10 sequence (Q9Y5A7 whole entry): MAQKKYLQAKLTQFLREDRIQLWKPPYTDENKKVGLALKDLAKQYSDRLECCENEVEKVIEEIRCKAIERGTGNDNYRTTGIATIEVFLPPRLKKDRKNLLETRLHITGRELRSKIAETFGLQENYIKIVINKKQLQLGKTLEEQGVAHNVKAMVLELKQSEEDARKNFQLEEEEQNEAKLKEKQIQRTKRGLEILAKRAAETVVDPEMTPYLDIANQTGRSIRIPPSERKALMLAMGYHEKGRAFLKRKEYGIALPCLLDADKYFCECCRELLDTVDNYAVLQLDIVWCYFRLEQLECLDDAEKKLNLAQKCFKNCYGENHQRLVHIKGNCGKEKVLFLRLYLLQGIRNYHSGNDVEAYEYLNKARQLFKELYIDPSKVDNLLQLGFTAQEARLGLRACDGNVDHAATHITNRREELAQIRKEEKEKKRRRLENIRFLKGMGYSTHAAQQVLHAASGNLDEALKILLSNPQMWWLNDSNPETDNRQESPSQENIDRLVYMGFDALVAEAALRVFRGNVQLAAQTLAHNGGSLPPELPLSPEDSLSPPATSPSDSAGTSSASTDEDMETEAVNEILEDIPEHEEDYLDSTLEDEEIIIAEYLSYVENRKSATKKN
Protocol: as §1, §2, §3, §4, §5, §6, §7, §8, §9, §10, §11, §12

N#CN1CC[C@@H](NC(=O)c2cc(-c3ccccc3Oc3ccc(N=[N+]=[N-])cc3)n[nH]2)C1 [IMP-2586]
Difference (log2 fold change of enrichment) (TMEM263): -0.44
Difference (log2 fold change of enrichment) (RPL27): -0.76
Difference (log2 fold change of enrichment) (HSDL1): 1.22
Difference (log2 fold change of enrichment) (SMARCA4): 0.52
Difference (log2 fold change of enrichment) (MALT1): 0.75

C#Cc1cccc(-c2cc(NC(=O)CC3CCN(C#N)C3)on2)c1 (centres unmarked) [IMP-2587]
Difference (log2 fold change of enrichment) (NPM3): 0.89
Difference (log2 fold change of enrichment) (CTSZ; IMP-2587 labelling vs DMSO, 30 nM, 10 min, HEK293T (Table S2, Fig.5a)): 2.29

N#CN1CC[C@H](CC(=O)Nc2cc(-c3cccc(Cl)c3)no2)C1 [compound 1, reference compound]
Difference (log2 fold change of enrichment) (ACTG1): -0.57
Difference (log2 fold change of enrichment) (CTSZ; compound 1 out-competition with IMP-2587 labelling, HEK293T (Table S3, Fig.5b)): -2.01

N#CN1CC[C@@H](NC(=O)c2cc(-c3ccccc3Oc3ccccc3)n[nH]2)C1 [compound 3, reference compound]
Difference (log2 fold change of enrichment) (CLPTM1): -1.18
Difference (log2 fold change of enrichment) (NUB1): -0.38
